Laboratory results: ChEMBL document CHEMBL1909046, “DrugMatrix in vitro pharmacology data”

Columns and labels:
[1] = target: T1, Alpha-1A adrenergic receptor (Rattus norvegicus, UniProt P43140); assay: DRUGMATRIX: Alpha-1A adrenergic receptor radioligand binding (ligand: prazosin); type: cell membranes, Wistar, Submaxillary gland, Membrane; conditions: Not Active = under 50% inhibition at 10 µM
T1 sequence (P43140 whole entry): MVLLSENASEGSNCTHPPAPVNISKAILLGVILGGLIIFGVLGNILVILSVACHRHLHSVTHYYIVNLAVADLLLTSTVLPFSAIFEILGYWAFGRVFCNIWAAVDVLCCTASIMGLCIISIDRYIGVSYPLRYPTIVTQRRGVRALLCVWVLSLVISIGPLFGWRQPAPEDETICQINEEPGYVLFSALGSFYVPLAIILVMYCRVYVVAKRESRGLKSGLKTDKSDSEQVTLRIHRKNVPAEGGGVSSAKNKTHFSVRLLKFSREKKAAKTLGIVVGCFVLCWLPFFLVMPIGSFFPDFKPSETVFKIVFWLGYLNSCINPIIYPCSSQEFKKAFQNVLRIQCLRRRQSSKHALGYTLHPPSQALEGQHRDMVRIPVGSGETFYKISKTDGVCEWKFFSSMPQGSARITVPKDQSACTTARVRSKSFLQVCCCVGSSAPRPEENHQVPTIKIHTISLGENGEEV

[2] = target: T2, Alpha-2C adrenergic receptor (Homo sapiens, UniProt P18825); assay: DRUGMATRIX: Adrenergic Alpha-2C radioligand binding (ligand: [3H] MK-912); type: cell membranes, Sf9, Membrane
T2 sequence (P18825 whole entry): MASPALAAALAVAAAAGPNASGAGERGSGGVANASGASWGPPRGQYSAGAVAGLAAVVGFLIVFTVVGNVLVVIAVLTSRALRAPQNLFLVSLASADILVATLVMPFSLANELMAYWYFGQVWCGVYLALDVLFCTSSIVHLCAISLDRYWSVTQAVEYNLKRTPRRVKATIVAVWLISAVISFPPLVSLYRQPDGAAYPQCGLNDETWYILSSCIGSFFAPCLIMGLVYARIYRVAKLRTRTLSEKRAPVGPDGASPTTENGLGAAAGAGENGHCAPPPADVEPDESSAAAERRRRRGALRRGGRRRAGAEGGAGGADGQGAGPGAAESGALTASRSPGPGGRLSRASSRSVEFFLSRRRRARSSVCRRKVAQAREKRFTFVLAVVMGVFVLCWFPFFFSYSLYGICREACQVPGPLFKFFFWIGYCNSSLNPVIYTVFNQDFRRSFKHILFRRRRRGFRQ

[3] = target: T3, Vasoactive intestinal polypeptide receptor 1 (Homo sapiens, UniProt P32241); type: cell membranes, Membrane; conditions: ht-29; also: in other assays of this panel Not Active means under 50% inhibition at 10 µM
T3 sequence (P32241 whole entry): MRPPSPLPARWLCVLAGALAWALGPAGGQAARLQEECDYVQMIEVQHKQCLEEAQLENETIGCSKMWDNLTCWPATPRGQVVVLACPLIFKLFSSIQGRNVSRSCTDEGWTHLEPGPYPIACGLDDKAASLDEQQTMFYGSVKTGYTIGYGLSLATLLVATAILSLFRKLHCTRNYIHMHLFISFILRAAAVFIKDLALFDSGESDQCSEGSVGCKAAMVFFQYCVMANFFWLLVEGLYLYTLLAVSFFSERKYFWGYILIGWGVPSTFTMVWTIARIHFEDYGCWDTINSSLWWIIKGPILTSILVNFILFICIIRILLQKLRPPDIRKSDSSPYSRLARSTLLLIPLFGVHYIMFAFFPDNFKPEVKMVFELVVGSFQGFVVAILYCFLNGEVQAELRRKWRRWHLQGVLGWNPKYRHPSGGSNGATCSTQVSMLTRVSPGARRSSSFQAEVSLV

[4] = target: T4, Caspase-1 (Homo sapiens, UniProt P29466); set-up: species or system Escherichia coli;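 also: Caspase-1 enzyme inhibition assay with a peptide substrate; in other assays of this panel Not Active means under 50% inhibition at 10 µM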
T4 sequence (P29466 whole entry): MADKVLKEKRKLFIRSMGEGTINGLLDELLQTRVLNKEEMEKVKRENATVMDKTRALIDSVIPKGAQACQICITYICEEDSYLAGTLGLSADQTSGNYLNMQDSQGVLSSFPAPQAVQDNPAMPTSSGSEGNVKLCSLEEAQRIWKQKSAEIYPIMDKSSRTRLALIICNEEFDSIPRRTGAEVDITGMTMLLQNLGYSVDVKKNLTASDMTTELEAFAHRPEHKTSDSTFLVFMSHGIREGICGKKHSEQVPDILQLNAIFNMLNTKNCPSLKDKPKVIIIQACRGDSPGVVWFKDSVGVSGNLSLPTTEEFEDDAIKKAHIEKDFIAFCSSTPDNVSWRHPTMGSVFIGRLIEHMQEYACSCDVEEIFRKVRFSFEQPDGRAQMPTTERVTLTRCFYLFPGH

[5] = target: Protein kinase C alpha type (Homo sapiens, UniProt P17252); type: cell-based; conditions: sf9;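 also: inhibition of PKCalpha kinase activity measured in an enzyme assay with histone as the phosphorylation substrate; in other assays of this panel Not Active means under 50% inhibition at 10 µM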
[6] = target: 5-hydroxytryptamine receptor 1B (Rattus norvegicus, UniProt P28564); type: cell membranes, Wistar, Cerebral cortex, Membrane; also: in other assays of this panel Not Active means under 50% inhibition at 10 µM
[7] = target: Acetylcholinesterase (Homo sapiens, UniProt P22303); assay: DRUGMATRIX: Acetylcholinesterase enzyme inhibition (substrate: acetylthiocholine); type: cell-based, HEK293; conditions: hek293; Not Active = under 50% inhibition at 10 µM
Acetylcholinesterase, sequence (P22303 whole entry): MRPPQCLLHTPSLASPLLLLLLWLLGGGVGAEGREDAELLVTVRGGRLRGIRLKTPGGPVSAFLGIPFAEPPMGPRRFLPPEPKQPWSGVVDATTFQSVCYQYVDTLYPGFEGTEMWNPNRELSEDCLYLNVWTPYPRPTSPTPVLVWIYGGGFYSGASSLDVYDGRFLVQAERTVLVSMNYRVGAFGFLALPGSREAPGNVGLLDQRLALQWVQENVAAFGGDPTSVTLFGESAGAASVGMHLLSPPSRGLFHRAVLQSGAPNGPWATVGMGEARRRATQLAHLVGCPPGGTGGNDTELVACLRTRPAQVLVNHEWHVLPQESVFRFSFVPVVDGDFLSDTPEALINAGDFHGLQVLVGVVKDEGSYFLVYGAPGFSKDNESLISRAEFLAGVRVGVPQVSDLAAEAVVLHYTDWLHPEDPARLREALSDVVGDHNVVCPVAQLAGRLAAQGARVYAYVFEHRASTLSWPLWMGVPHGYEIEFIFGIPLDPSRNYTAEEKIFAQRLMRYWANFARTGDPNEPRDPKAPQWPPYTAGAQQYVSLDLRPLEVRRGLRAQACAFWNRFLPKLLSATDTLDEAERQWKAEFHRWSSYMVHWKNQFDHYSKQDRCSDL

5-hydroxytryptamine receptor 1B, sequence (P28564 whole entry): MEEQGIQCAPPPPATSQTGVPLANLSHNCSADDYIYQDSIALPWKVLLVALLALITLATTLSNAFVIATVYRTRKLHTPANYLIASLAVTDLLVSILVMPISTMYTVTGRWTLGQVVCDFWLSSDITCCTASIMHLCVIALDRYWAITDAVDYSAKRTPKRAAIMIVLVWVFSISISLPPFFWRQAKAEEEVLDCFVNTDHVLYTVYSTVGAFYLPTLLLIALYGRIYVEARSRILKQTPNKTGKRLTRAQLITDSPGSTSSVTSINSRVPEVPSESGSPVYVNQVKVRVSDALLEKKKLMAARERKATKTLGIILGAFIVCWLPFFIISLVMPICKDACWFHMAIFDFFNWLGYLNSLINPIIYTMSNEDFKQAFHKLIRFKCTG

Row | SMILES | IC50 [1] | IC50 ([2]; sf9) | IC50 [3] | IC50 [4] | IC50 [5] | IC50 [6] | IC50 [7] | IC50 ([1]; read-out: IC50) | Ki ([1]; read-out: Ki) | IC50 ([2]; read-out: IC50) | Ki ([2]; read-out: Ki) | IC50 ([6]; read-out: IC50) | Ki ([6]; read-out: Ki)
1 | Cc1cc(O)cc(C)c1Cl [CHLOROXYLENOL] | Not Active | Not Active | Not Active | Not Active | Not Active | Not Active | Not Active | – | – | – | – | – | –
2 | CCCNC(=O)NS(=O)(=O)c1ccc(Cl)cc1 [CHLORPROPAMIDE] | Not Active | Not Active | Not Active | Not Active | Not Active | Not Active | Not Active | – | – | – | – | – | –
3 | NS(=O)(=O)c1cc(C2(O)NC(=O)c3ccccc32)ccc1Cl (configuration not stated) [CHLORTHALIDONE] | Not Active | Not Active | Not Active | Not Active | Not Active | Not Active | Not Active | – | – | – | – | – | –
4 | O=C(O)CC(O)(CC(=O)O)C(=O)O [CITRIC ACID] | Not Active | Not Active | Not Active | Not Active | Not Active | Not Active | Not Active | – | – | – | – | – | –
5 | CC(C)NCC(O)c1ccccc1Cl (configuration not stated) [CLORPRENALINE] | Not Active | Not Active | Not Active | Not Active | Not Active | Not Active | Not Active | – | – | – | – | – | –
6 | CN1CCN(C(c2ccccc2)c2ccccc2)CC1 [CYCLIZINE] | Not Active | Not Active | Not Active | Not Active | Not Active | Not Active | Not Active | – | – | – | – | – | –
7 | CN1C[C@@H]2C[C@H]1CN2c1cc2c(cc1F)c(=O)c(C(=O)O)cn2C1CC1 [DANOFLOXACIN] | Not Active | Not Active | Not Active | Not Active | Not Active | Not Active | Not Active | – | – | – | – | – | –
8 | COc1cccc2c1C(=O)c1c(O)c3c(c(O)c1C2=O)C[C@@](O)(C(C)=O)C[C@@H]3O[C@H]1C[C@H](N)[C@H](O)[C@H](C)O1 [DAUNORUBICIN] | Not Active | Not Active | Not Active | Not Active | Not Active | Not Active | Not Active | – | – | – | – | – | –
9 | O=C(O)c1cc(-c2ccc(F)cc2F)ccc1O [DIFLUNISAL] | Not Active | Not Active | Not Active | Not Active | Not Active | Not Active | Not Active | – | – | – | – | – | –
10 | C[S+](C)[O-] [DIMETHYL SULFOXIDE] | Not Active | Not Active | Not Active | Not Active | Not Active | Not Active | Not Active | – | – | – | – | – | –
11 | CC1=NN(c2ccccc2)C(=O)C1 [EDARAVONE] | Not Active | Not Active | Not Active | Not Active | Not Active | Not Active | Not Active | – | – | – | – | – | –
12 | CC(C)C[C@H]1C(=O)N2CCC[C@H]2[C@]2(O)O[C@](NC(=O)[C@@H]3C=C4c5cccc6[nH]cc(c56)C[C@H]4N(C)C3)(C(C)C)C(=O)N12 [ERGOCRYPTINE] | – | – | Not Active | Not Active | Not Active | – | Not Active | 11 nM | 4.28 nM | 38 nM | 5.48 nM | 8.2 nM | 5.02 nM
